This is an account of results in paper PMC3299684, “Two Odorant-Binding Proteins Mediate the Behavioural Response of Aphids to the Alarm Pheromone (E)-ß-farnesene and Structural Analogues” (PLoS ONE, 2012).

The target of assay [1] is T1, OBP3 (Acyrthosiphon pisum, UniProt A0A8R1XHB4).
T1 construct: construct not detailed here
T1 sequence (A0A8R1XHB4 24-141 limits assumed): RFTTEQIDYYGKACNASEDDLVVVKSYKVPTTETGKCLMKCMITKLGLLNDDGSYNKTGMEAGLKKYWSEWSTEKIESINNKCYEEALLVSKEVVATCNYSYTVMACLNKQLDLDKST
Details: competitive fluorescence binding assay, displacement of 1-NPN (2 uM) from recombinant OBP (2 uM), pH 7.4. The conditions noted are these: binder. On the procedure: (§1) The probe was excited at 337 nm and emission spectra were recorded between 380 and 450 nm. […] For determining binding constants, the intensity values corresponding to the maximum of fluorescence emission were plotted against free ligand concentrations. The curves were drawn using the Prism software, that allowed calculation of the dissociation constants and the stoichiometry of binding, assuming that the protein was 100% active. […] Supplementary file pone.0032759.s002.doc: Table S1 Binding properties of the ligands utilised in ligand binding assays and behaviour experiments. For each protein, [IC]50 reports the concentration of ligand that halves the initial fluorescence intensity (both protein and 1-NPN were used at the concentration of 2 µM). Dissociation constants are calculated as reported in the Materials and Methods section. The structures of “CAU” ligands are reported in Table 1, those of “LIG” chemicals in Figure 3. […] (DOC) Click here for additional data file.

Assay [2] addresses T2, OBP7 (Acyrthosiphon pisum, UniProt A0A8R1TDD0).
T2 construct: gene 100160457; primers encode N-terminus (M)YLSEA, C-terminus EFLPL
T2 sequence (A0A8R1TDD0 31-155): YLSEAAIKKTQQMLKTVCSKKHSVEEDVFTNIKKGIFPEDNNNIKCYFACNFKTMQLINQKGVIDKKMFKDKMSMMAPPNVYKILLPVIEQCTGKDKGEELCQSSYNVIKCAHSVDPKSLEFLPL
Description: biochemical. Details: competitive fluorescence binding assay, displacement of 1-NPN (2 uM) from recombinant OBP (2 uM), pH 7.4. The conditions noted are these: for IC50: read-out: [IC]50 OBP7. On the procedure: as §1

In assay [3] the target is T2, OBP7. Description: competitive displacement of 1-NPN fluorescence. Format: binding. The conditions noted are these: 50 mM Tris-HCl pH 7.4, 25°C; protein and 1-NPN 2 µM; KD calculated from IC50.
For assay [4], the target named is T1, OBP3. Description: competitive displacement of 1-NPN fluorescence. Format: binding. To be noted: 50 mM Tris-HCl pH 7.4, 25°C; protein and 1-NPN 2 µM; KD calculated from IC50.
Assay [5] has as its target T3, OBP6 (Acyrthosiphon pisum, UniProt A0A8R1TDN2).
T3 sequence (A0A8R1TDN2 1-160): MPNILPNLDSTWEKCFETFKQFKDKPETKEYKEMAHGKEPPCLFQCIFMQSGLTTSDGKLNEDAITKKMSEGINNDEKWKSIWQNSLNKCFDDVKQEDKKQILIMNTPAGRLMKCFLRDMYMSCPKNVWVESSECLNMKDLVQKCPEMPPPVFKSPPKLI
Description: biochemical. Details: competitive fluorescence binding assay, displacement of 1-NPN (2 uM) from recombinant OBP (2 uM), pH 7.4. On the procedure:
The probe was excited at 337 nm and emission spectra were recorded between 380 and 450 nm. […] For determining binding constants, the intensity values corresponding to the maximum of fluorescence emission were plotted against free ligand concentrations. The curves were drawn using the Prism software, that allowed calculation of the dissociation constants and the stoichiometry of binding, assuming that the protein was 100% active. […] Supplementary file pone.0032759.s002.doc: Table S1 Binding properties of the ligands utilised in ligand binding assays and behaviour experiments. For each protein, [IC]50 reports the concentration of ligand that halves the initial fluorescence intensity (both protein and 1-NPN were used at the concentration of 2 µM). Dissociation constants are calculated as reported in the Materials and Methods section. The structures of “CAU” ligands are reported in Table 1, those of “LIG” chemicals in Figure 3. Blank cells indicate values of [IC]50 higher than 30 µM. For these compounds dissociation constants have not been calculated. (DOC) Click here for additional data file.

In general, Kd refers to the free concentration of one partner at which half of the binding sites on the other are occupied at equilibrium, for simple one-to-one binding. As for `CC(C)CCOC(=O)CCCc1ccccc1` [LIG-8], the Kd in assay [1] was 10.7 µM; in assay [2] it was 2.8 µM. Further, the IC50 in assay [1] (read-out: [IC]50 OBP3) stood at 14 µM; in assay [2], 5.5 µM.

Regarding `C=CC(=C)CC/C=C(\C)CCC=C(C)C` [(E)-ß-farnesene], the KD result is “including (E)-ß-farnesene and structurally similar molecules, bind only OBP3 and/or OBP7” in assay [3]; “including (E)-ß-farnesene and structurally similar molecules, bind only OBP3 and/or OBP7” in assay [4].

Take `CC(=O)OC/C=C(\C)CCC=C(C)C` [LIG-7]: in assay [2], the dissociation constant (Kd) amounted to 9.3 µM and the IC50 was 18 µM.

As for `CC(C)CCCC(C)CCOC(=O)c1ccccc1` (centres unmarked) [LIG-4], the Kd in assay [5] worked out at 13.9 µM. Further, the results for the IC50 in assay [5] (read-out: [IC]50 OBP6) and in assay [2] were 16.1 µM and 2.5 µM, respectively.
